The target of assay [1] is T1, AuroraA-TPX2 (Homo sapiens, UniProt O14965).
T1 construct: 20 μL of AuroraA-TPX2 KD GST for a final volume of about 41 μL; GST
T1 sequence (O14965 133-383 limits assumed): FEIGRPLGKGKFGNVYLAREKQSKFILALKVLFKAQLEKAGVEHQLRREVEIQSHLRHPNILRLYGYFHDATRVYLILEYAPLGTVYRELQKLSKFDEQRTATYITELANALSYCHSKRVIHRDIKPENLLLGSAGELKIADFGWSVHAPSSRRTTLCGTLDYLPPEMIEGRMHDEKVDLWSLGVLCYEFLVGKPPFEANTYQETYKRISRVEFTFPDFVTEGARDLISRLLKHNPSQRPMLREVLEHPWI
T1 sequence (Q9ULW0 1-43 partner limits assumed): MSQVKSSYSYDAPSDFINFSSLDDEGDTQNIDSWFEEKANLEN
Briefly: AuroraA-TPX2 Homogeneous Time Resolved Fluorescent (HTRF) kinase assay. The format is biochemical. The method, boiled down: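 HTRF read-out (Eu 615 nm to APC 655 nm) of phosphorylated biotin-PLK, detected with 0.02 nM europium anti-phosphoPLK antibody and 0.0005 mg/mL SA-APC after overnight equilibration.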
A general note: In TR-FRET formats the signal depends on donor and acceptor labels being close together.

The target in assay [2] is T2, AuroraB (Homo sapiens, UniProt Q96GD4).
T2 construct: 20 μL of AuroraB FL H is for a final volume of 41 μL; His
Briefly: AuroraB Homogeneous Time Resolved Fluorescent (HTRF) kinase assay. The format is biochemical. Put shortly: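 Read-out is time-resolved FRET between europium anti-phospho-H3 antibody and streptavidin-APC, added in EDTA buffer to stop the reaction and equilibrated about 60 min (ex 320, em 615 and 655 nm). Preceding reaction: ~90 min, full-length enzyme, ATP, 0.1 μM biotin-Histone H3 substrate, Mg/Mn HEPES buffer pH 7.5.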

The mark [3] stands for this setting: average, read-out: AurA_IC50_IP (uM Avg).
Setting [4] is: average, read-out: AurB_IC50_IP (uM Avg).

Like-named read-outs stand apart in the source and are kept apart here.

T2 sequence (Q96GD4 whole entry): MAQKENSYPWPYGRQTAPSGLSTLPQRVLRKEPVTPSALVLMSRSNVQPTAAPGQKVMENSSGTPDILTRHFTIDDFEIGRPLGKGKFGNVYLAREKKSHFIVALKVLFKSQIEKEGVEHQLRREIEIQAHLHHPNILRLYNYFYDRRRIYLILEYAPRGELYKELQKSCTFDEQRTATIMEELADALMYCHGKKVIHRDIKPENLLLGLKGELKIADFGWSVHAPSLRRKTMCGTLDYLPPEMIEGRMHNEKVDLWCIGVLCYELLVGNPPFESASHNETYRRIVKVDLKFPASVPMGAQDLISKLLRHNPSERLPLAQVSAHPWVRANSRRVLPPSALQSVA

As to `Fc1cc(F)c2c(Oc3ccc(Nc4nnc(-c5ccccc5)c5ccccc45)cc3)ccnc2c1` [compound 276, N-(4-(5,7-difluoroquinolin-4-yloxy)phenyl)-4-phenylphthalazin-1-amine], the figures for the IC50 in assay [1] (setting [3]) and in assay [2] (setting [4]) were 0.67 µM and 0.018 µM, respectively.

Turning to `Cc1nc(-c2nnc(Nc3ccc(Oc4ccnc5cc(C#N)ccc45)cc3)c3ccccc23)sc1C` [compound 277, 4-((4-((4-(4,5-dimethyl-1,3-thiazol-2-yl)-1-phthalazinyl)amino)phenyl)oxy)-7-quinolinecarbonitrile], the IC50 was determined as 0.065 µM in assay [1] (setting [3]) and 0.007 µM in assay [2] (setting [4]).

Consider `COc1ccc2nccc(Oc3ccc(Nc4nnc(-c5ccc(Cl)cn5)c5ccccc45)cc3)c2c1` [compound 278, 4-(5-chloro-2-pyridinyl)-N-(4-((6-(methyloxy)-4-quinolinyl)oxy)phenyl)-1-phthalazinamine], for which the IC50 was 0.082 µM in assay [1] (setting [3]) and 0.004 µM in assay [2] (setting [4]).

Take `c1ccc2c(-c3ccc4c(c3)OCO4)nnc(Nc3ccc(Oc4ccnc5ccsc45)cc3)c2c1` [compound 279, 4-(1,3-benzodioxol-5-yl)-N-(4-(thieno[3,2-b]pyridin-7-yloxy)phenyl)-1-phthalazinamine]: the IC50 in assay [1] (setting [3]) came out at 0.078 µM; in assay [2] (setting [4]) it was 0.001 µM.

Turning to `COc1cnc2c(Oc3ccc(Nc4nnc(-c5cnc6[nH]ccc6c5)c5ccccc45)cc3)ccnc2c1` [compound 280, N-(4-((7-(methyloxy)-1,5-naphthyridin-4-yl)oxy)phenyl)-4-(1H-pyrrolo[2,3-b]pyridin-5-yl)-1-phthalazinamine], the IC50 in assay [1] (setting [3]) worked out at 0.062 µM; in assay [2] (setting [4]), 0.002 µM.

In the case of `COc1cnc2c(Oc3ccc(Nc4nnc(-c5ccccc5)c(C)c4C)cc3)ccnc2c1` [compound 281, 4,5-dimethyl-N-(4-((7-(methyloxy)-1,5-naphthyridin-4-yl)oxy)phenyl)-6-phenyl-3-pyridazinamine], the figures for the IC50 in assay [1] (setting [3]) and in assay [2] (setting [4]) were 0.696 µM and 0.019 µM, respectively.

Take `COc1cnc2c(Oc3ccc(Nc4nnc(-c5ccnc(Cl)c5)c5ccccc45)cc3)ccnc2c1` [compound 283, 4-(2-chloro-4-pyridinyl)-N-(4-((7-(methyloxy)-1,5-naphthyridin-4-yl)oxy)phenyl)-1-phthalazinamine]: the IC50 in assay [1] (setting [3]) was determined as 0.1 µM; in assay [2] (setting [4]) it was 0.01 µM.

As to `COc1cnc2c(Oc3ccc(Nc4nnc(-c5ccc(Cl)cc5)c5ccccc45)cc3F)ccnc2c1` [compound 284, 4-(4-chlorophenyl)-N-(3-fluoro-4-((7-(methyloxy)-1,5-naphthyridin-4-yl)oxy)phenyl)-1-phthalazinamine], the IC50 in assay [1] (setting [3]) is 0.019 µM; in assay [2] (setting [4]) it was 0.007 µM.

Turning to `c1ccc(-c2nnc(Nc3ccc(Sc4ccnc5cccnc45)cc3)c3ccccc23)cc1` [compound 285, N-(4-(1,5-naphthyridin-4-ylthio)phenyl)-4-phenyl-1-phthalazinamine], the IC50 turned out to be 0.029 µM in assay [1] (setting [3]) and 0.002 µM in assay [2] (setting [4]).

Regarding `Cc1noc(-c2cc3nccc(Oc4ccc(Nc5nnc(-c6ccc(Cl)cc6)c6ccccc56)cc4)c3s2)n1` [compound 286, 4-(4-chlorophenyl)-N-(4-((2-(3-methyl-1,2,4-oxadiazol-5-yl)thieno[3,2-b]pyridin-7-yl)oxy)phenyl)-1-phthalazinamine], the IC50 in assay [1] (setting [3]) came out at 0.087 µM; in assay [2] (setting [4]), 0.022 µM.

Turning to `C#Cc1ccc(-c2nnc(Nc3ccc(Oc4ccnc5cc(OC)cnc45)cc3)c3ccccc23)cc1` [compound 287, 4-(4-ethynylphenyl)-N-(4-((7-(methyloxy)-1,5-naphthyridin-4-yl)oxy)phenyl)-1-phthalazinamine], the results for the IC50 in assay [1] (setting [3]) and in assay [2] (setting [4]) were 0.061 µM and 0.013 µM, respectively.

Take `Cc1noc(-c2cc3nccc(Oc4ccc(Nc5nnc(-c6ccccc6)c6ccccc56)cc4)c3s2)n1` [compound 288, N-(4-((2-(3-methyl-1,2,4-oxadiazol-5-yl)thieno[3,2-b]pyridin-7-yl)oxy)phenyl)-4-phenyl-1-phthalazinamine]: the IC50 in assay [1] (setting [3]) worked out at 0.302 µM; in assay [2] (setting [4]), 0.039 µM.

As to `Cc1csc(-c2nnc(Nc3ccc(Oc4ccnc5ccsc45)cc3)c3ccccc23)c1` [compound 289, 4-(4-methyl-2-thienyl)-N-(4-(thieno[3,2-b]pyridin-7-yloxy)phenyl)-1-phthalazinamine], the IC50 in assay [1] (setting [3]) worked out at 0.068 µM; in assay [2] (setting [4]), 0.011 µM.

On to `Clc1ccc(-c2nnc(Nc3ccc(Oc4ncnc5[nH]ccc45)cc3)c3ccccc23)cc1` [compound 290, 4-(4-chlorophenyl)-N-(4-(7H-pyrrolo[2,3-d]pyrimidin-4-yloxy)phenyl)-1-phthalazinamine], for which the IC50 was 0.35 µM in assay [1] (setting [3]) and 0.009 µM in assay [2] (setting [4]).

As for `COc1cnc2c(Oc3ccc(Nc4nnc(-c5ccc6c(c5)OC(F)(F)O6)c5ccccc45)cc3)ccnc2c1` [compound 291, 4-(2,2-difluoro-1,3-benzodioxol-5-yl)-N-(4-((7-(methyloxy)-1,5-naphthyridin-4-yl)oxy)phenyl)-1-phthalazinamine], the IC50 in assay [1] (setting [3]) stood at 0.031 µM; in assay [2] (setting [4]), 0.01 µM.

For `COc1ccc2nccc(Sc3ccc(Nc4nnc(-c5ccccc5)c5ccccc45)cc3)c2c1` [compound 292, N-(4-((6-(methyloxy)-4-quinolinyl)thio)phenyl)-4-phenyl-1-phthalazinamine], the results for the IC50 in assay [1] (setting [3]) and in assay [2] (setting [4]) were 0.144 µM and 0.011 µM, respectively.

On to `FC1(F)Oc2ccc(-c3nnc(Nc4ccc(Oc5ccnc6ccsc56)cc4)c4ccccc34)cc2O1` [compound 293, 4-(2,2-difluoro-1,3-benzodioxol-5-yl)-N-(4-(thieno[3,2-b]pyridin-7-yloxy)phenyl)-1-phthalazinamine], for which the IC50 turned out to be 0.266 µM in assay [1] (setting [3]) and 0.006 µM in assay [2] (setting [4]).

Turning to `c1ccc(-c2nnc(Nc3ccc(Sc4ccnc5ccccc45)cc3)c3ccccc23)cc1` [compound 294, 4-phenyl-N-(4-(4-quinolinylthio)phenyl)-1-phthalazinamine], the IC50 was less than 0.1 µM in assay [1] (given as class symbol, read-out: AurA_IC50_IP (class symbol)) and less than 0.1 µM in assay [2] (given as class symbol, read-out: AurB_IC50_IP (class symbol)).

As to `COc1ccc2nccc(Sc3ccc(Nc4nnc(-c5ccc(Cl)cc5)c5ccccc45)cc3)c2c1` [compound 297, 4-(4-chlorophenyl)-N-(4-(6-methoxyquinolin-4-ylthio)phenyl)phthalazin-1-amine], the IC50 amounted to 0.036 µM in assay [1] (setting [3]) and 0.031 µM in assay [2] (setting [4]).

Take `COc1cnc2c(Oc3ccc(Nc4nnc(-c5cc(Cl)cs5)c5ccccc45)cc3)ccnc2c1` [compound 298, 4-(4-chloro-2-thienyl)-N-(4-((7-(methyloxy)-1,5-naphthyridin-4-yl)oxy)phenyl)-1-phthalazinamine]: the figures for the IC50 in assay [1] (setting [3]) and in assay [2] (setting [4]) were 0.014 µM and 0.023 µM, respectively.

For `COc1cnc2c(Oc3ccc(Nc4nnc(-c5cccc(C)c5)c5ccccc45)cc3)ccnc2c1` [compound 299, N-(4-((7-(methyloxy)-1,5-naphthyridin-4-yl)oxy)phenyl)-4-(3-methylphenyl)-1-phthalazinamine], the IC50 turned out to be 0.018 µM in assay [1] (setting [3]) and 0.015 µM in assay [2] (setting [4]).

Turning to `CCc1cc(N2CC[C@H]3CCCC[C@@H]3C2)nnc1Nc1ccc(Oc2ccnc3cc(OC)cnc23)cc1` [compound 300, 4-ethyl-N-(4-((7-(methyloxy)-1,5-naphthyridin-4-yl)oxy)phenyl)-6-((4aR,8aS)-octahydro-2(1H)-isoquinolinyl)-3-pyridazinamine], the IC50 in assay [1] (setting [3]) was found to be 0.112 µM; in assay [2] (setting [4]), 0.067 µM.

Take `Clc1ccc(-c2nnc(Nc3ccc(Sc4ccnc5cc(Br)cnc45)cc3)c3ccccc23)cc1` [compound 301, N-(4-((7-bromo-1,5-naphthyridin-4-yl)thio)phenyl)-4-(4-chlorophenyl)-1-phthalazinamine]: the IC50 in assay [1] (setting [3]) is 0.035 µM; in assay [2] (setting [4]) it was 0.063 µM.

As for `COc1cnc2c(Sc3ccc(Nc4nnc(-c5ccc(Cl)cn5)c5ccccc45)cc3)ccnc2c1` [compound 304, 4-(5-chloro-2-pyridinyl)-N-(4-((7-(methyloxy)-1,5-naphthyridin-4-yl)thio)phenyl)-1-phthalazinamine], the IC50 is 0.013 µM in assay [1] (setting [3]) and 0.019 µM in assay [2] (setting [4]).

For the compound `COc1cnc2c(Oc3ccc(Nc4nnc(-c5ccc6c(c5)OCO6)c5ccccc45)cc3)ccnc2c1` [compound 306, 4-(1,3-benzodioxol-5-yl)-N-(4-((7-(methyloxy)-1,5-naphthyridin-4-yl)oxy)phenyl)-1-phthalazinamine], the results for the IC50 in assay [1] (setting [3]) and in assay [2] (setting [4]) were 0.011 µM and 0.03 µM, respectively.

With `CCc1cc(-c2ccc(C)cc2)nnc1Nc1ccc(Oc2ccnc3cc(OC)cnc23)cc1` [compound 307, 4-ethyl-N-(4-((7-(methyloxy)-1,5-naphthyridin-4-yl)oxy)phenyl)-6-(4-methylphenyl)-3-pyridazinamine], the values for the IC50 in assay [1] (setting [3]) and in assay [2] (setting [4]) were 0.022 µM and 0.006 µM, respectively.

As to `Clc1ccc(-c2nnc(Nc3ccc(Sc4ccnc5cccnc45)cc3)c3ccccc23)cc1` [compound 308, 4-(4-chlorophenyl)-N-(4-(1,5-naphthyridin-4-ylthio)phenyl)-1-phthalazinamine], the IC50 was found to be 0.029 µM in assay [1] (setting [3]) and 0.004 µM in assay [2] (setting [4]).

(Values after patent US8557816B2, “Aurora kinase modulators and method of use” (Amgen Inc., priority 2007, dated 2013).)
